Activity calls are given as the source filed them. The calls are words filed in the database; no cut-off is given here.
Key:
[1] = target: T1, Kinesin-like protein KIF11 (Homo sapiens) (UniProt P52732); conditions: 25 uM
T1 sequence (whole entry): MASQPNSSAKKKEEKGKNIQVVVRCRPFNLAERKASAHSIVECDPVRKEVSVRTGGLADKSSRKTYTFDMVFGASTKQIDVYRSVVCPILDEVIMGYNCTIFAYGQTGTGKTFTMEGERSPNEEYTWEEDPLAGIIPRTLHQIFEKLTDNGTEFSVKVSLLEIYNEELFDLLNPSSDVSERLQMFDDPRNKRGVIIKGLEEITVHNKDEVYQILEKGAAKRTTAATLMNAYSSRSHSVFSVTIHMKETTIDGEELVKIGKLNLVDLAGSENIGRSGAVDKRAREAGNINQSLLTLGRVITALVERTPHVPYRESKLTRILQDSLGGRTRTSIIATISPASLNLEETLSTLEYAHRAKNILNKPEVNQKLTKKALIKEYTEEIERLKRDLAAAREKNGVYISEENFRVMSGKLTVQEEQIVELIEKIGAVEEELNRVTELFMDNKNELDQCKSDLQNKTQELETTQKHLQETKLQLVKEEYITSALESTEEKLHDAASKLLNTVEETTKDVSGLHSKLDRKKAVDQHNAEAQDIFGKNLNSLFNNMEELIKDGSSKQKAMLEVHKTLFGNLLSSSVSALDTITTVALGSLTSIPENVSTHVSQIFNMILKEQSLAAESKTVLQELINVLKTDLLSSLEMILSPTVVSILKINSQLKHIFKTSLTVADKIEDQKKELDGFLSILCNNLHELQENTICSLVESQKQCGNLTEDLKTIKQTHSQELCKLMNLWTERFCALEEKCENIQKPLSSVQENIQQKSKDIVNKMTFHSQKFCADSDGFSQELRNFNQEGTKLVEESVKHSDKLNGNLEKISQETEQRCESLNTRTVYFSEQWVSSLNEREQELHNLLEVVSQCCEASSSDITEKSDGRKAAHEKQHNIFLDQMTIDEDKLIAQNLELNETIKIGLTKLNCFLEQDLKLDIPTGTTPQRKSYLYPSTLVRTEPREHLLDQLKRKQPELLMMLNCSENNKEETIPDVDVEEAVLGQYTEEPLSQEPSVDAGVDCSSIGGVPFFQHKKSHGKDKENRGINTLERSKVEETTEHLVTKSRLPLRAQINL
Description: Inhibition of recombinant Eg5-GFP in cell-free system assessed as Eg5 motility speed on microtubule at 25 uM by mean square displacement analysis in presence of 2 mM ATP

[2] = target: T1, Kinesin-like protein KIF11 (Homo sapiens); conditions: 100 uM
Description: Inhibition of recombinant Eg5-GFP in cell-free system assessed as Eg5 motility speed on microtubule at 100 uM by mean square displacement analysis in presence of 2 mM ATP

[3] = target: T1, Kinesin-like protein KIF11 (Homo sapiens); conditions: 100 uM; remark: listed apart in the source
Description: Inhibition of recombinant Eg5-GFP in cell-free system assessed as reduction of Eg5 motility speed on microtubule at 100 uM by kymograph analysis

[4] = target: T1, Kinesin-like protein KIF11 (Homo sapiens); conditions: 100 uM; remark: listed apart in the source
Description: Inhibition of recombinant Eg5-GFP in cell-free system assessed as reduction in mean duration of Eg5-GFP-microtubule interaction at 100 uM by kymograph analysis

[5] = target: T1, Kinesin-like protein KIF11 (Homo sapiens); conditions: 100 uM; remark: listed apart in the source
Description: Inhibition of recombinant Eg5-GFP in cell-free system assessed as Eg5-GFP movement along microtubules without directionality at 100 uM by mean square displacement analysis in presence of 2 mM ADP

[6] = target: T1, Kinesin-like protein KIF11 (Homo sapiens); experiment: Binding affinity to recombinant Eg5-GFP in cell-free system assessed as Eg5-GFP movement along microtubules without directionality at 2 mM by kymograph analysis
[7] = target: T1, Kinesin-like protein KIF11 (Homo sapiens); experiment: Binding affinity to recombinant Eg5-GFP in cell-free system assessed as Eg5-GFP movement along microtubules without directionality at 2 mM by mean square displacement analysis

Compound: CCOC(=O)C1=C(C)NC(=S)NC1c1cccc(O)c1 (configuration not stated)
- Activity (nanometer2/sec) [1]: 1460
- Activity (nanometer2/sec) [2]: 2140
- inhibition [3]: inactive
- inhibition [4]: inactive
- Activity (nanometer2/sec) [5]: 3820

Compound: Nc1ncnc2c1ncn2[C@@H]1O[C@H](COP(=O)(O)OP(=O)(O)O)[C@@H](O)[C@H]1O
- Activity (nanometer2/sec) [6]: 4
- Activity (nanometer2/sec) [7]: 771
